Test results as given in patent publication US9206124B2, “Treatment of drug-resistant cancer with 2-aryl-2-(3-indolyl) acetohydroxamates” (New Mexico Technical Research Foundation, priority 2013, dated 2015).

Tests used:
[1] = test system: Hs683 anaplastic oligodendroglioma cells; test: MTT antiproliferative assay, Hs683; type: cell-based; details: Homo sapiens, Hs 683, 48 h treatment, ± SD, apoptosis-sensitive reference, read-out: GI50 in vitro, Hs683
Experimental: As part of the ongoing efforts aimed at identification of compounds active against cancer cells displaying resistance to proapoptotic agents, the selected 2-aryl-2-(3-indolyl)-acetohydroxamates were evaluated for in vitro growth inhibition against a panel of additional cancer cell lines including those resistant to various proapoptotic stimuli, such as human T98G and U87 glioblastoma and human A549 non-small-cell-lung cancer (NSCLC), as well as an apoptosis-sensitive tumor model, such as human Hs683 anaplastic oligodendroglioma, used as a reference. The data reveal that for the most part these compounds retain the single-digit antiproliferatve GI50 values in this challenging cancer cell panel.
Human cancer cell lines were obtained from the American Type Culture Collection (ATCC, Manassas, Va., USA), the European Collection of Cell Culture (ECACC, Salisbury, UK) and the Deutsche Sammlung von Mikroorganismen and Zellkulturen (DSMZ, Braunschweig, Germany). Human cervical adenocarcinoma HeLa cells were cultured in DMEM supplemented with 10% fetal bovine serum (FBS). Human mammary carcinoma MCF-7 cells were cultured in RPMI supplemented with 10% FBS. The U87 cells (ATCC HTB-14) were cultured in DMEM culture medium, while the A549 cells (DSMZ ACC107) were cultured in RPMI culture medium supplemented with 10% heat-inactivated FBS. The glioblastoma multiforme Hs683 (ATCC HTB-138) and the T98G (ATCC CRL-1690) cell lines were cultivated in DMEM supplemented with 10% FBS. The Human uterine sarcoma MES-SA and MES-SA/Dx5 cells were cultured in RPMI-1640 medium supplemented with 10% FBS with MES SA/Dx5 maintained in the presence of 500 nM Doxorubicin (Sigma). SKMEL-28 cells (ATCC HTB72) and U373 glioblastoma cells (ECACC 08061901) were cultured in RPMI culture medium supplemented with 10% heat-inactivated FBS. Cell culture media were supplemented with 4 mM glutamine (Lonza code BE17-605E), 100 μg/mL gentamicin (Lonza code 17-5182), and penicillin-streptomycin (200 units/ml and 200 μg/ml) (Lonza code 17-602E). Neurosphere culture GBM 031810 was established using known methods and maintained in Neurobasal medium (Invitrogen Carlsbad, Calif.) with B27 supplement (20 ul/ml; Invitrogen), Glutamax (10 ul/ml; Invitrogen), fibroblast growth factor-2 (20 ng/ml; Peprotech, Rocky Hill, N.J., USA), epidermal growth factor (20 ng/ml; Peprotech), heparin (32 IE/ml; Sigma Aldrich, St. Louis, Mo.), and penicillin-streptomycin (1×, Invitrogen). Growth factors and heparin were renewed twice weekly. All cell lines were cultured in T25 flasks, maintained and grown at 37° C., 95% humidity, 5% CO2.
Antiproliferative properties of the synthesized compounds were evaluated by the MTT assay. All compounds were dissolved in DMSO at a concentration of either 100 mM or 50 mM prior to cell treatment. The cells were trypsinized and seeded at 4×10^3 cells per well into 96-well plates. The cells were grown for 24 h, treated with compounds at concentrations ranging from 0.001 to 100 μM and incubated for 48 h in 200 μL media. 20 μL of MTT reagent in serum free medium (5 mg/mL) was added to each well and incubated further for 2 h. Media was removed and the resulting formazan crystals were re-solubilized in 200 μL of DMSO. A490 was measured using a Molecular Devices Thermomax plate reader. The experiments were performed in quadruplicate and repeated at least twice for each compound per cell line. Cells treated with 0.1% DMSO were used as a negative control; 1 μM phenyl arsine oxide (PAO) was used as a positive control.

U373 glioblastoma cells = test: Quantitative videomicroscopy, U373; type: cell-based, human; details: 25 μM
Experimental: To obtain insight into the effectiveness of 2-aryl-2-(3-indolyl)acetohydroxamates against apoptosis-resistant cancers, computer-assisted phase-contrast microscopy (quantitative videomicroscopy) was employed to observe the phenotypic morphological changes in cancer cells as they are treated with these compounds. […] Based on the phase contrast pictures obtained by means of quantitative videomicroscopy, a global growth ratio (GGR) was calculated, which corresponds to the ratio of the mean number of cells present in a given image captured in the experiment (in this case after 24, 48 and 72 h) to the number of cells present in the first image (at 0 h). The ratio obtained in the 3aafa-treated experiment was then divided by the ratio obtained in the control. […] Thus, the GGR calculations are consistent with the MTT colorimetric data and indicate that it is the cytostatic properties associated with the hydroxamates that are responsible for their antiproliferative effects against apoptosis-resistant cancer cells, at least at relevant concentrations (slightly above the GI50 values).
Human cancer cell lines were obtained from the American Type Culture Collection (ATCC, Manassas, Va., USA), the European Collection of Cell Culture (ECACC, Salisbury, UK) and the Deutsche Sammlung von Mikroorganismen and Zellkulturen (DSMZ, Braunschweig, Germany). […]

GI50 [1]: 8.9 ± 0.4 µM
Compound: O=C(NO)C(c1ccccc1)c1c(-c2ccc3ccccc3c2)[nH]c2ccccc12 (stereo not drawn) [Compound 3aafa]
phenotypic effect, U373 (U373 glioblastoma cells; slightly exceeding GI50, FIG. 4): inhibits cancer cell proliferation without inducing cell death | global growth ratio (GGR), U373 (U373 glioblastoma cells; 72 h observation, treated/control): ca. 0.3
